The term IC50 denotes the midpoint of a concentration-inhibition curve.

A short description of data set [1]: Rat liver microsome clearance. Type of data set: in vitro ADME. Particulars: first value of RLM/HLM cell. The procedure:
Microsomal In-Vitro Clearance:
The test articles (2 μM) were incubated for one hour in 1 mg/mL rat hepatic microsomes with 2 mM NADPH at 37° C. with aliquots removed at t=0, 15, 30 and 60 minutes. Incubations were terminated at the specified times by protein precipitation, and samples were centrifuged. Resultant supernants were analyzed by LC-MS/MS for the amount of incubated compound remaining, and the half life (t1/2) and intrinsic microsomal clearance rate (CLint) of each compound was calculated.
(In general: Liver microsomes are a subcellular fraction often used to study metabolism.)

For data set [2], the target named is T1, CCR9 receptor (Homo sapiens, UniProt P51686).
T1 sequence (P51686 1-369): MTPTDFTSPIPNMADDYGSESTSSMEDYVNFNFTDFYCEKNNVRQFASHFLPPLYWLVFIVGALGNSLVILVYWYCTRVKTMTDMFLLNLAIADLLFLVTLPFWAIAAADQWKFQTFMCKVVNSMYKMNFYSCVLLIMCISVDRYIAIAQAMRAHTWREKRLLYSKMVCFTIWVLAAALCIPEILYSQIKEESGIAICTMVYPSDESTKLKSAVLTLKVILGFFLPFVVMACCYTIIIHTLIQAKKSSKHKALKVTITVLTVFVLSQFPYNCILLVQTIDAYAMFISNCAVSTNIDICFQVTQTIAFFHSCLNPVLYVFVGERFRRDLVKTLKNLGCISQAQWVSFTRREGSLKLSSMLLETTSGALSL
The experiment in a line: Calcium mobilization (Ca FLIPR) assay, antagonist mode vs TECK. Type of data set: cell-based. The following applies: for LipE: LipE = pIC50-clogD; for IC50: cells expressing CCR9, TECK at EC80 0.01 uM, read-out: CCR9 Ca2+ IC50. As for the experimental part:
Calcium Mobilization Assay:
Cells expressing CCR9 receptor (MultiSpan, Hayward, Calif.) were seeded in 384-well plates. Ca^2+ assays were conducted after overnight culture in the plates according to the manufacturer's protocol using Screen Quest™ Fluo-8 no wash kit (AAT Bioquest, Sunnyvale, Calif.). Dye loading buffer was added to the cells and incubated for 45 minutes at 37° C. followed by 15 minutes incubation at room temperature. Compounds in the presence of 0.1% DMSO were applied to the cells during calcium flux measurement. Calcium flux was monitored for 90 seconds with compound application after 10 seconds. For antagonist mode, cells were preincubated with the compound at room temperature for 10 minutes before the application of the control agonist TECK (Preprotech, Rocky Hill, N.J.) at EC80 concentration of 0.01 uM obtained from dose-response curves of control agonist.
(In general: A change in cytosolic calcium serves as a functional read-out for many receptors and channels.)

Data set [3] can be described thus: Human liver microsome clearance. Particulars: second value of RLM/HLM cell. Type of data set: in vitro ADME.
Data set [4] can be described thus: pH-solubility (high-throughput, buffers). Type of data set: physicochemical. The following applies: for Sol. pH 4: 1000 ug compound in 1 mL pH 4 buffer; for Sol. pH 7: 1000 ug compound in 1 mL pH 7 buffer; for Sol. pH 9: 1000 ug compound in 1 mL pH 9 buffer. As for the experimental part:
Solubility of representative acidic triazoles was measured in 3 buffer systems (pH 4, 7.4 and 9) using an in-house high-throughput solubility method. A stock solution of test article was prepared in DMA (20 mg/ml) and spiked into each buffer system (20× dilution) to target 1 mg/ml concentration. The samples were vortexed briefly and equilibrated for 24 hr at RT. Samples were then filtered using 0.22u PVDF membrane filters and analyzed for drug concentration using HPLC.

Data set [5] concerns Molt-4 cells. The experiment in a line: Chemotaxis assay of Molt-4 cells towards TECK. Type of data set: cell-based. Particulars: Homo sapiens; Molt-4 cells in HBSS buffer with 0.1% BSA; TECK at EC80. As for the experimental part: Molt-4 cells were harvested and re-suspended in HBSS buffer with 0.1% BSA or in 100% human serum. Cell suspensions were mixed with compound solutions for 10 min and then seeded onto the upper chamber of the ChemoTX chemotaxis plates with 5 μm pore size polycarbonate membrane from NeuroProbe (Gaithersburg, Md.). EC80 concentration of TECK was applied in the bottom chamber. After 2 hours of incubation at 37° C., the assay was terminated by removing the upper chamber. The cells migrated into the bottom chamber were quantified with CyQUANT solution from Invitrogen (Grand Island, N.Y.).

Each structure is given as a SMILES string. “And” between values parts separate entries of the source, which are not always exact repeats. Identical values can stand only once.

As for `Cc1nc2nc(C(F)(F)F)nn2c(O)c1Cc1ccc(C(C)(C)C)cc1` [Compound 2], the “RLM CL (rat liver microsome hepatic clearance)” value (“RLM CL” for short) in data set [1] turned out to be 54 mL/min/kg. Besides, in data set [2], the LipE is 2.6 and the IC50 worked out at 410 nM. Moreover, in data set [3], the “HLM CL (human liver microsome hepatic clearance)” value (shortened to “HLM CL”) stood at 19 mL/min/kg. In data set [4], the “Sol. pH 4” value amounted to 4 ug/mL; the “Sol. pH 7” value is 565 ug/mL; the “Sol. pH 9” value was 1035 ug/mL and > 1000 ug/mL.

Consider `Cc1c(Cc2ccc(C(C)(C)C)cc2)c(O)nc2ncnn12` [Compound 3], for which, in data set [2], the IC50 amounted to 820 nM.

Consider `Cc1c(Cc2ccc(C(C)(C)C)cc2)c(=O)n2nc(C(F)(F)F)nc2n1C` [Compound 4], for which the IC50 in data set [2] was over 20000 nM.

With `COc1c(Cc2ccc(C(C)(C)C)cc2)c(C)nc2nc(C(F)(F)F)nn12` [Compound 5], the IC50 in data set [2] was determined as 3700 nM.

The compound `Cc1nc2cc(C(F)(F)F)nn2c(O)c1Cc1ccc(C(C)(C)C)cc1` [Compound 7] returned an IC50 in data set [5] of 980 nM. Moreover, the “RLM CL” value in data set [1] is on record as 42 mL/min/kg. Further, in data set [2], the IC50 was found to be 110 nM. Also, the “HLM CL” value in data set [3] stood at 18 mL/min/kg. Besides, in data set [4], the “Sol. pH 4” value was found to be 0 ug/mL, the “Sol. pH 7” value was 0 ug/mL and the “Sol. pH 9” value is recorded as 5 ug/mL.

Take `CCc1nc2n[nH]c(=O)n2c(O)c1Cc1ccc(C(C)(C)C)cc1` [Compound 8]: the IC50 in data set [5] came to 230 nM. Besides, in data set [1], the “RLM CL” value turned out to be 39 mL/min/kg. In addition, in data set [2], the LipE was 5.5 and the IC50 stood at 28 nM. In data set [3], the “HLM CL” value is 4 mL/min/kg. In data set [4], the “Sol. pH 4” value amounted to 79 ug/mL, the “Sol. pH 7” value stood at 117 ug/mL and the “Sol. pH 9” value stood at 914 ug/mL.

Take `Cc1cn2c(O)c(Cc3ccc(C(C)(C)C)cc3)c(C)nc2n1` [Compound 9]: in data set [2], the IC50 is over 10000 nM.

`CCc1nc2c[nH]nc2c(O)c1Cc1ccc(C(C)(C)C)cc1` [Compound 10]: the IC50 in data set [2] was over 10000 nM.

Regarding `Cc1nc2nc(C)c(Cc3ccc(C(C)(C)C)cc3)c(O)n2n1` [Compound 12], in data set [1], the “RLM CL” value is given as 50 mL/min/kg. Also, in data set [2], the LipE is reported as 3.9 and the IC50 worked out at 220 nM. The “HLM CL” value in data set [3] turned out to be 11 mL/min/kg.

Turning to `CCc1nc2nc(C)nn2c(O)c1Cc1ccc(C(C)(C)C)cc1` [Compound 13], the IC50 came to 130 nM in data set [5] and 19 nM in data set [2]. Besides, the LipE in data set [2] came to 4.4.

In turn, `CCc1nc2nc(N)nn2c(O)c1Cc1ccc(C(C)(C)C)cc1` [Compound 14] came in with an IC50 in data set [5] of 50 nM. Moreover, the “RLM CL” value in data set [1] was 39 mL/min/kg. In addition, in data set [2], the LipE amounted to 5.9 and the IC50 came to 2 nM. Further, in data set [3], the “HLM CL” value was 6 mL/min/kg. Also, in data set [4], the “Sol. pH 4” value came out at 2 ug/mL, the “Sol. pH 7” value is listed as 7 ug/mL and the “Sol. pH 9” value was 358 ug/mL.

With `CCc1nc2nc(N(C)C)nn2c(O)c1Cc1ccc(C(C)(C)C)cc1` [Compound 15], the IC50 in data set [5] is 380 nM. Besides, the “RLM CL” value in data set [1] was 43 mL/min/kg. Moreover, in data set [2], the LipE is 4.1 and the IC50 was found to be 33 nM. In addition, the “HLM CL” value in data set [3] turned out to be 12 mL/min/kg.

Consider `CCc1nc2nc(CN(C)C)nn2c(O)c1Cc1ccc(C(C)(C)C)cc1` [Compound 16], for which, in data set [2], the IC50 stood at 290 nM.

`CCc1nc2nc(COC)nn2c(O)c1Cc1ccc(C(C)(C)C)cc1` [Compound 17]: the IC50 worked out at 190 nM in data set [5] and 7 nM in data set [2]. Also, the “RLM CL” value in data set [1] is given as 36 mL/min/kg. Besides, the “HLM CL” value in data set [3] stood at 13 mL/min/kg.

Take `CCc1nc2nc(C(=O)N(C)C)nn2c(O)c1Cc1ccc(C(C)(C)C)cc1` [Compound 18]: 520 nM corresponded to half-maximal inhibition in data set [5] (IC50). The “RLM CL” value in data set [1] is listed as 42 mL/min/kg. In addition, in data set [2], the IC50 is 12 nM. For the same compound, the “HLM CL” value in data set [3] is 18 mL/min/kg. In addition, in data set [4], the “Sol. pH 4” value stood at 0 ug/mL, the “Sol. pH 7” value amounted to 0 ug/mL and the “Sol. pH 9” value was 5 ug/mL.

The compound `CCc1nc2nc(CO)nn2c(O)c1Cc1ccc(C(C)(C)C)cc1` [Compound 20] displayed an IC50 in data set [5] of 200 nM. Also, the “RLM CL” value in data set [1] came out at 43 mL/min/kg. Further, in data set [2], the LipE worked out at 5.5 and the IC50 turned out to be 10 nM. For the same compound, the “HLM CL” value in data set [3] is reported as 8 mL/min/kg.

Consider `CCc1nc2ncnn2c(O)c1Cc1ccc(C(C)(C)C)cc1` [Compound 21], for which the values for the IC50 in data set [5] and in data set [2] were 88 nM and 21 nM, respectively. In addition, the “RLM CL” value in data set [1] came out at 51 mL/min/kg. Moreover, in data set [2], the LipE stood at 4.8. The “HLM CL” value in data set [3] is given as 12 mL/min/kg.

Take `CCCc1nc2ncnn2c(O)c1Cc1ccc(C(C)(C)C)cc1` [Compound 22]: half-maximal inhibition in data set [5] (IC50) required 55 nM. Besides, in data set [2], the LipE was 5.0 and the IC50 came to 4 nM.

For `CC(C)Cc1nc2ncnn2c(O)c1Cc1ccc(C(C)(C)C)cc1` [Compound 24], in data set [5], the midpoint of inhibition, the IC50, lay at 270 nM. Moreover, the “RLM CL” value in data set [1] is listed as 43 mL/min/kg. Moreover, in data set [2], the LipE was found to be 3.9 and the IC50 worked out at 27 nM. In data set [3], the “HLM CL” value was 12 mL/min/kg.

Turning to `CCOc1nc2ncnn2c(O)c1Cc1ccc(C(C)(C)C)cc1` [Compound 25], the IC50 in data set [5] came out at 92 nM; in data set [2], 23 nM. For the same compound, the “RLM CL” value in data set [1] turned out to be 52 mL/min/kg. In data set [2], the LipE amounted to 4.8. Besides, the “HLM CL” value in data set [3] was determined as 11 mL/min/kg.

With `CC(C)(C)c1ccc(Cc2c(C3CCCC3)nc3ncnn3c2O)cc1` [Compound 28], the IC50 in data set [5] was 145 nM; in data set [2] it was 15 nM. Moreover, the “RLM CL” value in data set [1] is on record as 47 mL/min/kg. Moreover, in data set [3], the “HLM CL” value came out at 11 mL/min/kg.

`CC(C)(C)c1ccc(Cc2c(C3CCOC3)nc3ncnn3c2O)cc1` (stereo not drawn) [Compound 29]: the IC50 in data set [5] worked out at 205 nM; in data set [2], 17 nM. Besides, in data set [1], the “RLM CL” value is 45 mL/min/kg. In data set [3], the “HLM CL” value came out at 8 mL/min/kg.

In the case of `CC(C)(C)c1ccc(Cc2c(-c3ccoc3)nc3ncnn3c2O)cc1` [Compound 30], the IC50 in data set [5] was determined as 104 nM; in data set [2], 5 nM. The LipE in data set [2] stood at 5.3.

In the case of `CC(C)(C)c1ccc(Cc2c(O)nc3ncnn3c2O)cc1` [Compound 31], in data set [2], the IC50 is over 10000 nM.

Consider `CN(C)c1nc2ncnn2c(O)c1Cc1ccc(C(C)(C)C)cc1` [Compound 32], for which the IC50 in data set [2] is over 1000 nM.

For the compound `Cc1nc2nc(C(F)(F)F)nn2c(O)c1Cc1ccc(N2CC(C)OC(C)C2)c(F)c1` (stereo not drawn) [Compound 33], in data set [2], the LipE came out at 3 and the IC50 is 1900 nM. Further, the “HLM CL” value in data set [3] is “—/17 mL/min/kg”. For the same compound, in data set [4], the “Sol. pH 4” value is 79 ug/mL, the “Sol. pH 7” value is recorded as over 1000 ug/mL and the “Sol. pH 9” value was over 1000 ug/mL.

Regarding `Cc1nc2nc(C(F)(F)F)nn2c(O)c1Cc1ccc(C2(F)CCOCC2)cc1` [Compound 34], the “RLM CL” value in data set [1] stood at 43 mL/min/kg. In addition, in data set [2], the LipE was 3.7 and the IC50 was determined as 340 nM. Further, the “HLM CL” value in data set [3] came out at 17 mL/min/kg.

These data come from patent US20170216295A1, “CCR9 ANTAGONIST COMPOUNDS” (Merck Sharp & Dohme Corp., priority 2014, published 2017).
